Series [1] deals with MDA-MB-436. Description: In vitro human breast cancer cell growth inhibition. Conditions: MDA-MB-436 cells, read-out: In Vitro Human Breast Cancer Inhibition (IC50, μM) MDA-MB-436. In kind it is cell-based.
For series [2], the target named is hNaMNAT-1 (Homo sapiens, UniProt Q9HAN9). Description: Human NAMNAT inhibition in vitro. In kind it is biochemical.
Series [3] concerns SUM159. Put plainly: In vitro human breast cancer cell growth inhibition. The series is classed as cell-based. Conditions: SUM159 cells, read-out: In Vitro Human Breast Cancer Inhibition (IC50, μM) SUM159.
For series [4], the system named is BEAS-23. Put plainly: In vitro inhibition of normal human cells. In kind it is cell-based. The conditions noted are these: read-out: In Vitro Inhibition Normal Human Cells (IC50, μM) BEAS-23.
The test system of series [5] is Hep-G2. Description: In vitro inhibition of normal human cells. Conditions: HepG2. The series is classed as cell-based.
In series [6] the test system is HCC1937. Put plainly: In vitro human breast cancer cell growth inhibition. The series is classed as cell-based. Conditions: HCC1937 cells, read-out: In Vitro Human Breast Cancer Inhibition (IC50, μM) HCC1937.
Series [7] deals with IMR90. Put plainly: In vitro inhibition of normal human cells. The conditions noted are these: IMR-90. In kind it is cell-based.
The subject of series [8] is HEK293. Description: In vitro inhibition of normal human cells. In kind it is cell-based.
Series [9] relates to E. faecalis. Put plainly: microbe, parasite or virus in culture. In kind it is cell-based. Conditions: Enterococcus faecalis, read-out: MIC (μg/mL) E. faecalis.
Series [10] in a line: Pharmacokinetics, plasma concentration after intraperitoneal injection.
Series [11] concerns S. aureus. Put plainly: microbe, parasite or virus in culture. In kind it is cell-based. Conditions: Staphylococcus aureus, read-out: MIC (μg/mL) S. aureus.
The subject of series [12] is S. aureus MRSA. Put plainly: microbe, parasite or virus in culture. The series is classed as cell-based. The conditions noted are these: Staphylococcus aureus, read-out: MIC (μg/mL) S. aureus MRSA.
Series [13] addresses B. anthracis NADs (Bacillus anthracis, UniProt Q81RP3). In kind it is biochemical.
For series [14], the system named is E. faecium VRE. Put plainly: microbe, parasite or virus in culture. In kind it is cell-based. The conditions noted are these: Enterococcus faecium, read-out: MIC (μg/mL) E. faecium VRE.
Series [15] is described as follows: In vivo toxicity, maximum tolerated dose. The conditions noted are these: female, BALB/c, mouse, intraperitoneal.
Series [16] deals with B. anthracis. Description: microbe, parasite or virus in culture. The series is classed as cell-based. The conditions noted are these: Bacillus anthracis, read-out: MIC (μg/mL) B. anthracis.
Series [17] has as its system Bacillus anthracis Sterne. Put plainly: microbe, parasite or virus in culture. The series is classed as cell-based.
Series [18] has as its system B. cereus. Put plainly: microbe, parasite or virus in culture. The conditions noted are these: Bacillus cereus, read-out: MIC (μg/mL) B. cereus. The series is classed as cell-based.
Series [19] deals with S. pneumoniae. Description: microbe, parasite or virus in culture. The conditions noted are these: Streptococcus pneumoniae, read-out: MIC (μg/mL) S. pneumoniae. The series is classed as cell-based.

Structures are written as SMILES. Values after ≈ are worked out from the molar mass of the structure shown. Like-named read-outs stand apart in the source and are kept apart here.

hNaMNAT-1, sequence (Q9HAN9 whole entry): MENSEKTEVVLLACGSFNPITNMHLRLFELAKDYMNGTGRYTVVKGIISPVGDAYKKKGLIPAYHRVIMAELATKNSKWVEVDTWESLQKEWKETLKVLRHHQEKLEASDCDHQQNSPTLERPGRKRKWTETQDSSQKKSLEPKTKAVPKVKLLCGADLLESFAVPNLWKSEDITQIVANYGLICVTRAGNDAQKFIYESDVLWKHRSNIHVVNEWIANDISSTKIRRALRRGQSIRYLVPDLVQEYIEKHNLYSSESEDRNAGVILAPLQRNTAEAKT
B. anthracis NADs, sequence (Q81RP3 whole entry, looked up): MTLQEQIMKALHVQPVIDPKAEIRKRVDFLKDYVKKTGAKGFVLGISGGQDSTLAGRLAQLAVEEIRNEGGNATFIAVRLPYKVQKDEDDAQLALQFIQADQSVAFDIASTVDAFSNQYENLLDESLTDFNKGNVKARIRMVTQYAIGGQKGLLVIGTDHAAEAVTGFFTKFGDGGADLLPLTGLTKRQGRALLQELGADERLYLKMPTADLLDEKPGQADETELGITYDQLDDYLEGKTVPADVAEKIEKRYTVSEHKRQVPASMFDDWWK

What is called IC50 is the concentration that gives 50% inhibition. With `O=[N+]([O-])c1cc(S(=O)(=O)NCc2ccco2)ccc1NNC(=S)Nc1cccc(C(F)(F)F)c1` [Compound 6034], the IC50 was 70 µM in series [1]; 28 µM in series [2]; 50 µM in [3]; 186 µM in series [4]; 90 µM in [5]; 60 µM in [6]. For the same compound, the IC50 in series [7] came to 148 µM; in series [8] it was 176 µM.

As usually defined, the MTD is the highest dose tested that stayed within the study's limit of toxicity. Higher therefore signals a wide tolerated range. Take `O=C(Nc1ccc([N+](=O)[O-])cc1)Nc1ccc(S(=O)(=O)Nc2ccc(Cl)c(Cl)c2)cc1` [Compound 5824]: the MIC in series [9] came to 14 µg/mL (≈ 29.1 µM); in [11], 10.8 µg/mL (≈ 22.4 µM); in [12], 5.5 µg/mL (≈ 11.4 µM); in [14], 10.8 µg/mL (≈ 22.4 µM); in [16] it was 1.2 µg/mL (≈ 2.49 µM); in [17] (Bacillus anthracis, read-out: B.a. MIC (μM)), 1.9 µM (≈ 0.915 µg/mL). The values for the MIC in series [18] and in series [19] were 0.78 µg/mL (≈ 1.62 µM) and 3.6 µg/mL (≈ 7.48 µM), respectively. The “time to highest plasma drug concentration” value was “about 12 hours” in series [10] (25 mg/kg (Bid), second dose 8 hr after first, time after first dose); 2 h in [10] (25 mg/kg (QD), mouse plasma); 2 h in series [10] (50 mg/kg (QD), mouse plasma). The “activity against NADs (in words)” value in [13] was “good activities”. Also, the IC50 in series [13] (read-out: IC50) and in series [13] (read-out: NADs IC50) was 10 µM in each case. Further, the maximal tolerated dose (MTD) in series [15] is 25 mg/kg. Also, the “activity against B. anthracis (in words)” value in [17] is “good activities”.

On to `O=C(Nc1ccc(S(=O)(=O)Nc2ccc(Cl)c(Cl)c2)cc1)Nc1ccccc1O` [Compound 6399], for which the concentration for half-maximal inhibition (IC50) in series [2] was found to be 19 µM; in series [4], 93 µM; in series [5], 84 µM; in series [6], 40 µM; in [7], 181 µM; in series [8] it was 163 µM.

Turning to `O=C(Nc1ccc(O)cc1)Nc1ccc(S(=O)(=O)Nc2ccc(Cl)c(Cl)c2)cc1` [Compound 6400], the IC50 is 95 µM in series [1]; 13 µM in series [2]; 50 µM in series [3]; more than 200 µM in [4]; 112 µM in [5]; 95 µM in series [6]. The concentration for half-maximal inhibition (IC50) in series [7] and in [8] was more than 200 µM in each case.

As to `Nc1ccc(NS(=O)(=O)c2ccc(NC(=O)Nc3ccc(Cl)c(Cl)c3)cc2)cc1` [Compound 6010], the IC50 was 25 µM in series [1]; more than 600 µM in series [2]; 10 µM in [3]; more than 200 µM in series [4]; more than 200 µM in [5]; 20 µM in series [6]. Also, the half-inhibitory concentration (IC50) in series [7] and in [8] was more than 200 µM in each case.

Values taken from US20110275635A1 (priority 2009, published 2011).
